# Reference: patent US20120142646A1, “Novel Compounds 621” (priority 2006, published 2012)
# Counter-ions that a name gives are not always drawn.
# Target: T1, Adrenergic β2 (Homo sapiens, UniProt P07550)
# T1 construct: Adherent H292 cells were removed from tissue culture flasks; endogenous in cells; host or cells: H292 cells
# Assay: Adrenergic β2 mediated cAMP production in H292 cells (AlphaScreen cAMP detection)
# Format: cell-based
# Set-up: key to β2 Int Act: fraction of formoterol maximum activity (formoterol = 1)
# Settings: Intrinsic Activity as a fraction relative to the maximum activity determined for formoterol
# How it was run: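 H292 cells pre-treated 10 min with rolipram (300 μM final), then given agonist for 60 min at room temperature in HBSS/10 mM HEPES pH 7.4, 1.6% DMSO final. Lysate cAMP measured by AlphaScreen against a cAMP standard curve. Four-parameter fit gives pEC50; intrinsic activity relative to formoterol maximum.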
# T1 sequence (P07550 whole entry): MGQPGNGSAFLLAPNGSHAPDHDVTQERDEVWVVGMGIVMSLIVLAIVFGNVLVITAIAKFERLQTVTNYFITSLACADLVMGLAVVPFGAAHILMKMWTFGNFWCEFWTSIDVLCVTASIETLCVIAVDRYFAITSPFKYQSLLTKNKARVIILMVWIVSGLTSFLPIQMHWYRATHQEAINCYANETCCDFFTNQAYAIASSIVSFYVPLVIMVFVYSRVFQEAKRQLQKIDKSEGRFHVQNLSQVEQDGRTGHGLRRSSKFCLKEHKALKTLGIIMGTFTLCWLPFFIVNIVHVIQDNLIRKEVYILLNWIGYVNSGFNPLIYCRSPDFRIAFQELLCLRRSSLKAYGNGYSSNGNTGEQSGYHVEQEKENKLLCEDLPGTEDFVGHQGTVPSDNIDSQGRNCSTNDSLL
row,SMILES,β2 Int Act
1,"O=C(CCNCCc1cc(F)cc(F)c1)N(CCNCCc1ccc(O)c2[nH]c(=O)ccc12)C1CCCCCC1 [Example 10, N-Cycloheptyl-3-(3,5-difluorophenethylamino)-N-(2-(2-(8-hydroxy-2-oxo-1,2-dihydroquinolin-5-yl)ethylamino)ethyl)propanamide bis(trifluoroacetate)]",0.85
2,"O=C1Cc2c(CCNCCN(C(=O)CCNCCc3cccc(F)c3)C3CCCCC3)ccc(O)c2N1 [Example 20, N-Cyclohexyl-3-(3-fluorophenethylamino)-N-(2-(2-(7-hydroxy-2-oxoindolin-4-yl)ethylamino)ethyl)propanamide dihydrobromide]",0.78
3,"O=C1COc2c(CCNCCN(C(=O)CCNCCc3cccc(Cl)c3F)C3CCCCC3)ccc(O)c2N1 [Example 39, 3-(3-Chloro-2-fluorophenethylamino)-N-cyclohexyl-N-(2-(2-(5-hydroxy-3-oxo-3,4-dihydro-2H-benzo[b][1,4]oxazin-8-yl)ethylamino)ethyl)propanamide bis(trifluoroacetate)]",0.98
4,"O=C1COc2c(CCNCCN(C(=O)CCOCCc3ccc(F)cc3)C3CCCCC3)ccc(O)c2N1 [Example 75, N-Cyclohexyl-3-(4-fluorophenethoxy)-N-(2-(2-(5-hydroxy-3-oxo-3,4-dihydro-2H-benzo[b][1,4]oxazin-8-yl)ethylamino)ethyl)propanamide trifluoroacetate]",0.96
5,"CCCC[C@@H](C)N(CCNCCc1ccc(O)c2c1OCC(=O)N2)C(=O)CCNCCc1cc(F)ccc1C [Example 57, (R)-3-(5-Fluoro-2-methylphenethylamino)-N-(hexan-2-yl)-N-(2-(2-(5-hydroxy-3-oxo-3,4-dihydro-2H-benzo[b][1,4]oxazin-8-yl)ethylamino)ethyl)propanamide bis(trifluoroacetate)]",0.91
6,"CCCC[C@@H](C)N(CCNCCc1ccc(O)c2c1OCC(=O)N2)C(=O)CCNCCc1cc(F)cc(F)c1 [Example 51, (R)-3-(3,5-Difluorophenethylamino)-N-(hexan-2-yl)-N-(2-(2-(5-hydroxy-3-oxo-3,4-dihydro-2H-benzo[b][1,4]oxazin-8-yl)ethylamino)ethyl)propanamide bis(trifluoroacetate)]",0.94
7,"O=C(CCNCCc1cccc(-c2ccccc2)c1)N(CCNCCc1ccc(O)c2[nH]c(=O)ccc12)C1CCCCCC1 [Example 12, 3-(2-(Biphenyl-3-yl)ethylamino)-N-cycloheptyl-N-(2-(2-(8-hydroxy-2-oxo-1,2-dihydroquinolin-5-yl)ethylamino)ethyl)propanamide bis(trifluoroacetate)]",0.67
8,"O=C1COc2c(CCNCCN(C(=O)CCNCCc3ccc(F)c(F)c3)C3CCCCCC3)ccc(O)c2N1 [Example 67, N-Cycloheptyl-3-(3,4-difluorophenethylamino)-N-(2-(2-(5-hydroxy-3-oxo-3,4-dihydro-2H-benzo[b][1,4]oxazin-8-yl)ethylamino)ethyl)propanamide bis(trifluoroacetate)]",0.87
9,"Cl.O=C(CCOCCc1ccccc1F)N(CCNCCc1ccc(O)c2[nH]c(=O)ccc12)C1CCCCC1 [Example 73, N-Cyclohexyl-3-(2-fluorophenethoxy)-N-(2-(2-(8-hydroxy-2-oxo-1,2-dihydroquinolin-5-yl)ethylamino)ethyl)propanamide hydrochloride]",0.94
10,"O=C1COc2c(CCNCCN(C(=O)CCNCCc3cc(F)cc(Cl)c3)C3CCCCCC3)ccc(O)c2N1 [Example 66, 3-(3-Chloro-5-fluorophenethylamino)-N-cycloheptyl-N-(2-(2-(5-hydroxy-3-oxo-3,4-dihydro-2H-benzo[b][1,4]oxazin-8-yl)ethylamino)ethyl)propanamide bis(trifluoroacetate)]",0.99
11,"CCCC[C@@H](C)N(CCNCCc1ccc(O)c2c1OCC(=O)N2)C(=O)CCNCCc1ccc(F)c(C)c1 [Example 47, (R)-3-(4-Fluoro-3-methylphenethylamino)-N-(hexan-2-yl)-N-(2-(2-(5-hydroxy-3-oxo-3,4-dihydro-2H-benzo[b][1,4]oxazin-8-yl)ethylamino)ethyl)propanamide bis(trifluoroacetate)]",0.89
